From patent US20090325936A1, “IMIDAZOPYRIDINE ANALOGS AS CB2 RECEPTOR MODULATORS, USEFUL IN THE TREATMENT OF PAIN, RESPIRATORY AND NON-RESPIRATORY DISEASES” (priority 2006, published 2009)
Where two headings read alike, the source gives them in different places.

Tests used:
human CB2 = human CB2 (Homo sapiens, UniProt P34972); assay: Cyclic AMP assay (HTRF), CHO cells expressing human CB2; assay type: cell-based; details: for Emax: CHO, read-out: CB2 Emax
Procedure: (§1) Chinese Hamster Ovary cells (CHO) expressing human CB1 or human CB2 (3.3×10^5 cells/ml) were preincubated for 15 min at room temperature with tested agonist and 3-isobutyl-1-methylxanthine (IBMX; 200 μM) in phosphate buffered saline containing 1 mg/ml BSA (assay buffer) followed by 30 min incubation with forskolin in a total volume of 10 μl. The optimal forskolin concentration for each cell line was established in a separate experiment and adjusted to stimulate 70% of maximal cAMP response. cAMP content was measured using an HTRF assay (CisBio) according to the manufacturer's two step protocol.

human CB1 = human CB1 (Homo sapiens, UniProt P21554); assay: Cyclic AMP assay (HTRF), CHO cells expressing human CB1; assay type: cell-based
Procedure: as §1

[1] = agonist, forskolin-stimulated cAMP in CHO cells expressing human CB2, text calls the value IP, read-out: CB2 cAMP

Chain of human CB2 (P34972 whole entry): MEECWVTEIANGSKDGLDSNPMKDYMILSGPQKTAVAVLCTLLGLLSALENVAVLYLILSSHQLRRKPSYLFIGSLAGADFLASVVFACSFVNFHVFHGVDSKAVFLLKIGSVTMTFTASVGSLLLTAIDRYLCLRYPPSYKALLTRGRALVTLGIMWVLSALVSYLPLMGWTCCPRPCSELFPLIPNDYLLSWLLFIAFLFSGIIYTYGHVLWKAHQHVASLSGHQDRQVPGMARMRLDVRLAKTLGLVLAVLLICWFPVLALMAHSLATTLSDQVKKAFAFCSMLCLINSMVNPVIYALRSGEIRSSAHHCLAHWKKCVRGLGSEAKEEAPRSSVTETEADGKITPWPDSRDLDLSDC
Chain of human CB1 (P21554 whole entry): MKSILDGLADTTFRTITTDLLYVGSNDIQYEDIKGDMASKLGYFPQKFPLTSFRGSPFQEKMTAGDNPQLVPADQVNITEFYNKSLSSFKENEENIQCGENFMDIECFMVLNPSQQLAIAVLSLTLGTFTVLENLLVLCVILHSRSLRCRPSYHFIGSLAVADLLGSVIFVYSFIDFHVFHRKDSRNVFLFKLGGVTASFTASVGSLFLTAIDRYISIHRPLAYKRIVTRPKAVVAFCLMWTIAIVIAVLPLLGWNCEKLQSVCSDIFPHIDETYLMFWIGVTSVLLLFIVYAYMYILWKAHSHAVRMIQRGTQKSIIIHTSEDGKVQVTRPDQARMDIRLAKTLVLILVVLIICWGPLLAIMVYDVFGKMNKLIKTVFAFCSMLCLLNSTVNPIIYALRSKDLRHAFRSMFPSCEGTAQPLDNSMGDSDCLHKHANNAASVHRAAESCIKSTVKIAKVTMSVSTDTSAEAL

| Structure (SMILES) | Emax (human CB2) | EC50 (human CB2; [1]) | EC50 (human CB1) | EC50 (human CB2) |
| --- | --- | --- | --- | --- |
| O=C(Nc1ccccc1Cl)c1nc(CN2CCC(O)C2)c2ccccn12 (stereo not drawn) | 69.9% | 261 nM | > 17000 nM |  |
| CC(NC(=O)c1nc(Cl)c2ccccn12)c1ccccc1Cl (stereo not drawn) | 83.8% |  | > 17000 nM | 18.4 nM |
| CC(NC(=O)c1nc(N2CCOCC2)n2ccccc12)C(C)(C)C (stereo not drawn) | 99.5% |  | > 17000 nM | 5.2 nM |
| O=C(Nc1cccc2cnccc12)c1nc(C(=O)N2CCC(F)CC2)n2ccccc12 | 79.5% |  | 2150 nM | 23.5 nM |
| O=C(NC12CC3CC(CC(C3)C1)C2)c1nc(Oc2cccc(F)c2)n2ccccc12 | 91.5% |  | 140 nM | 1.92 nM |
| O=C(NC12CC3CC(CC(C3)C1)C2)c1nc(C2CCCN2)n2ccccc12 (stereo not drawn) | 87.1% |  | 845 nM | 5.93 nM |
| O=C(NCC1CCOCC1)c1nc(-c2cccnc2)n2ccccc12 | 74.7% | 6430 nM | > 17000 nM |  |
| O=C(NC(C1CC1)C1CC1)c1nc(-c2ccc(F)cc2)c2ccccn12 | 96.4% |  | 405 nM | 2.01 nM |
| O=C(c1ccc2ccccc2c1)c1nc(CN2CCOCC2)c2ccccn12 | 76.7% |  | 878 nM | 2.28 nM |
| O=C(NC1(c2ccccc2)CC1)c1nc(-c2cccc(F)c2)n2ccccc12 | 69.8% |  | 544 nM | 62 nM |
| O=C(c1cccc(Cl)c1)c1nc(-c2ccc(F)cc2)n2ccccc12 | 63.7% | 176 nM | > 17000 nM |  |
| O=C(NC12CC3CC(CC(C3)C1)C2)c1nc(C(O)c2cccnc2)n2ccccc12 (stereo not drawn) | 80.8% |  | > 17000 nM | 46.2 nM |
